# PubChem BioAssay (NCI)
# Where “and” joins values, the source holds several entries; their conditions need not be identical. Equal values may be shown once.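 How tested: cells in 96-well plates exposed to compound for 48 hours at five concentrations. GI50: concentration for 50% inhibition of growth. TGI denotes the concentration required for complete inhibition of growth.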
# What was measured:
# Test in all cases: DTP human tumour cell line panel, 48 h
# [1] = system: RXF 393 renal
# [2] = system: NCI/ADR-RES ovarian
# [3] = system: MDA-N
# [4] = system: IGROV1 ovarian
# [5] = system: NCI-H226 lung
# [6] = system: UO-31 renal
# [7] = system: LOX IMVI melanoma
# [8] = system: CAKI-1 renal
# [9] = system: MALME-3M melanoma
# [10] = system: HS 578T breast
# [11] = system: SR leukemia
# [12] = system: UACC-257 melanoma
# [13] = system: MDA-MB-231 breast
# [14] = system: SF-295 CNS
# [15] = system: CCRF-CEM leukemia
SMILES,TGI [1] [µM],TGI [2] [µM],TGI [3] [µM],TGI [4] [µM],TGI [5] [µM],TGI [6] [µM],TGI [7] [µM],TGI [8] [µM],TGI [9] [µM],TGI [10] [µM],TGI [11] [µM],TGI [12] [µM],TGI [13] [µM],TGI [14] [µM],TGI [15] [µM],GI50 [8]
O=C1c2ccccc2C(=O)c2cc(N=Nc3c(O)ccc4ccccc34)ccc21,> 100,> 100,> 100,> 100,> 100,> 100,> 100,> 100,> 100,> 100,> 100,> 100,> 100,> 100,> 100,–
C=CCC1CC(n2cc(C)c(=O)[nH]c2=O)OC1CO[Si](C)(C)C(C)(C)C (stereo unspecified),15.9,31.5,27.4,23.4,28.4,24.9,26.2,31.8,23.2,29.4,11.5,33.8,28.9,40,29.9,–
O=[N+]([O-])c1ccc2c(c1)N([O-])C1(CCCCC1)[N+]2=O,32.4,77.7,31.8,36.9,37.4,33.7,42.2,34.9,28.7,47.9,51.5,29.4,34.4,34,> 100,–
CC[C@@]1(O)C(=O)OCc2c1cc1n(c2=O)Cc2c-1nc1ccccc1c2/C=N\NC(=O)C1CCCN1 (stereo partly specified),2.1,20.5,> 100,> 96.6,2.8,8.27,2.67,> 23.5,> 89.4,> 100,1.73,> 95.4,> 100,18.6,> 100,–
Cc1ccc(NC=O)c(-c2c(N)[nH]c(=S)[nH]c2=O)c1,> 100,> 100,> 100,> 100,> 100,> 100,> 100,> 100,> 100,> 100,> 100,> 100,> 100,> 100,> 100,–
COc1ccc(-n2[nH]nc(C(N)=O)c2=O)cc1,> 100,> 100,> 100,> 100,> 100,> 100,> 100,> 100,> 100,> 100,> 100,> 100,> 100,> 100,> 100,–
O=C(c1nc2ccc([N+](=O)[O-])cc2[nH]c1=O)C(O)c1ccc2c(c1)OCO2 (stereo unspecified),> 100,> 100,> 100,> 100,> 100,> 100,> 100,> 100,> 100,> 100,> 100,> 100,> 100,> 100,> 100,–
O=C(O)CCS/C(=C\C(SCCC(=O)O)c1ccc(Cl)cc1)c1ccc(Cl)cc1 (stereo unspecified),> 100,> 100,> 100,> 100,> 100,> 100,63.1,> 100,> 100,> 100,78.5,> 100,> 100,> 100,> 100,–
CC(=N\N)/C(C)=N/N=C(C)/C(C)=N/N,> 100,> 100,> 100,> 100,> 100,> 100,> 100,> 100,> 100,> 100,> 100,> 100,> 100,> 100,> 100,–
Clc1ccc(C(c2ccccc2Cl)C(Cl)Cl)cc1 (stereo unspecified),30.9,37.1,35.1,30.7,39.1,37.4,40.2,31.8,33.5,37.1,46.5,37.2,35.2,35.6,47.1,–
CCOC(=O)C1=C(O)C2C3CC4C2C(O)=C(C(=O)OCC)C2C1C3C42 (stereo unspecified),> 100,35.2,> 100,> 100,> 100,> 100,> 100,> 100,> 100,> 100,> 100,> 100,> 100,> 100,> 100,–
Clc1ccc(C2=NN=C3C(c4ccccc4)=Nc4ccccc4N3C2)cc1,> 46.2,> 100,> 100,> 100,> 100,> 80,> 100,> 100,> 82,31.6,> 21.9,> 100,> 100,> 100,15.2,–
O=S(=O)(Nc1nc2ccccc2nc1Nc1ccc2ccccc2c1)c1ccccc1,86.1,> 100,> 100,> 57.9,> 84.2,39.5,48.8,99,> 100,> 74.5,> 87.4,> 100,> 100,47.3,> 77.3,–
C=C(C(=O)O)[C@@H]1C[C@@H]2O[C@H]1[C@@H](O)[C@@H](C)CCCC(C)=CCC[C@@]2(C)O,> 100,> 100,> 100,> 100,> 100,> 100,> 100,> 100,> 100,> 100,> 95,> 100,> 100,> 100,> 100,37.2 µM and > 100 µM
O=C(/C=C/c1cccc(Oc2ccccc2)c1)NCc1ccc(C(=O)NCc2ccccc2)cc1,41,> 100,> 100,> 100,88.1,> 100,> 100,> 100,> 100,> 100,> 100,> 100,> 100,79.4,> 100,–
CCCCCCCCCCCCCCCCNC(=O)C(=O)/C=C(\O)c1ccc(C)cc1,> 10,> 10,> 10,> 10,> 10,> 10,> 10,> 10,> 10,> 10,> 10,> 10,> 10,> 10,> 10,–
NC(N)=NC(N)=Nc1ccc(S(=O)(=O)O)cc1,> 100,> 100,> 100,> 100,> 100,> 100,> 100,> 100,> 100,> 100,> 100,> 100,> 100,> 100,> 100,–
Cc1ccc2c(c1)C(=O)c1nc(C)ccc1C2=O,> 100,59.1,39.9,66.5,> 100,86.2,> 100,76.9,24.7,> 100,> 100,45.2,62.1,> 100,> 100,–
